Reference: ChEMBL document CHEMBL4145634, “Discovery of Janus Kinase 2 (JAK2) and Histone Deacetylase (HDAC) Dual Inhibitors as a Novel Strategy for the Combinational Treatment of Leukemia and Invasive Fungal Infections” (J Med Chem, 2018)
pIC50: −log10 of the molar value. In brackets after ≈: the same amount, converted by molar mass. Activity calls are given as the source filed them. No cut-off for these calls is given here.

Key:
HL-60 [1] = test: Antiproliferative activity against human HL60 cells after 48 hrs by CCK-8 assay; type: functional, cell-based; details: HL-60, 48 h
K562 [2] = test: Antiproliferative activity against human K562 cells after 48 hrs by CCK-8 assay; type: functional, cell-based; details: K562, 48 h
HEL [3] = test: Antiproliferative activity against human HEL cells after 48 hrs by CCK-8 assay; type: functional, cell-based
HEL [4] = test: Induction of apoptosis in human HEL cells at 10 uM after 48 hrs by Annexin-V-FITC/propidium iodide staining based flow cytometry relative to control; type: functional
Candida albicans [5] = test: microbe, parasite or virus in culture; type: functional; details: Candida albicans, 0304103, 48 h
Description: Antifungal activity against FLC resistant Candida albicans 0304103 after 48 hrs by checkerboard microdilution method

Candida albicans [6] = test: microbe, parasite or virus in culture; type: functional; details: Candida albicans, 0304103, 48 h; remark: listed apart in the source
Description: Antifungal activity against FLC resistant Candida albicans 0304103 assessed as fluconazol MIC50 after 48 hrs by checkerboard microdilution method

Candida albicans [7] = test: microbe, parasite or virus in culture; type: functional; details: Candida albicans, 0304103, 48 h; remark: listed apart in the source
Description: Antifungal activity against FLC resistant Candida albicans 0304103 after 48 hrs in presence of fluconazol by checkerboard microdilution method

Candida albicans [8] = test: Antifungal activity against FLC resistant Candida albicans 100 after 48 hrs by checkerboard microdilution method; type: functional; details: Candida albicans, 100, 48 h
Candida albicans [9] = test: microbe, parasite or virus in culture; type: functional; details: Candida albicans, 100, 48 h
Description: Antifungal activity against FLC resistant Candida albicans 100 assessed as fluconazol MIC50 after 48 hrs by checkerboard microdilution method

Candida albicans [10] = test: Antifungal activity against FLC resistant Candida albicans 100 after 48 hrs in presence of fluconazol by checkerboard microdilution method; type: functional; details: Candida albicans, 100, 48 h
Candida albicans [11] = test: microbe, parasite or virus in culture; type: functional; details: Candida albicans, 0710922, 48 h
Description: Antifungal activity against FLC resistant Candida albicans 0710922 after 48 hrs by checkerboard microdilution method

Candida albicans [12] = test: microbe, parasite or virus in culture; type: functional; details: Candida albicans, 0710922, 48 h; remark: listed apart in the source
Description: Antifungal activity against FLC resistant Candida albicans 0710922 assessed as fluconazol MIC50 after 48 hrs by checkerboard microdilution method

Candida albicans [13] = test: microbe, parasite or virus in culture; type: functional; details: Candida albicans, 0710922, 48 h; remark: listed apart in the source
Description: Antifungal activity against FLC resistant Candida albicans 0710922 after 48 hrs in presence of fluconazol by checkerboard microdilution method

Candida albicans [14] = test: Synergistic antifungal activity against FLC resistant Candida albicans 0304103 assessed as FIC index after 48 hrs by checkerboard microdilution method; type: functional
Candida albicans [15] = test: Synergistic antifungal activity against FLC resistant Candida albicans 100 assessed as FIC index after 48 hrs by checkerboard microdilution method; type: functional
Candida albicans [16] = test: Synergistic antifungal activity against FLC resistant Candida albicans 0710922 assessed as FIC index after 48 hrs by checkerboard microdilution method; type: functional
HEL [17] = test: Antitumor activity against human HEL cells xenografted in BALB/C nude mouse assessed as tumor growth inhibition at 10 mg/kg, ip bid treated for 21 consecutive days relative to control; type: functional; details: read-out: TGI
Mus musculus [18] = test: Toxicity in BALB/C nude mouse xenografted with human HEL cells at 10 mg/kg, ip bid treated for 21 consecutive days; type: organism-based; details: in vivo
Mus musculus [19] = test: Toxicity in BALB/C nude mouse xenografted with human HEL cells assessed as reduction in body weight at 10 mg/kg, ip bid treated for 21 consecutive days; type: organism-based; details: in vivo
Mus musculus [20] = test: Protection against spleen enlargement in SCID mouse xenografted with human HEL cells at 10 mg/kg, ip qd; type: functional, organism-based
HEL [21] = test: Antitumor activity in human HEL cells xenografted in SCID mouse assessed as mouse survival at 10 mg/kg, ip qd measured after 10 days; type: functional, organism-based
Mus musculus [22] = test: In vivo antifungal activity against FLC resistant Candida albicans 0304103 infected in ICR mouse assessed as mouse survival at 5 mg/kg, ip qd up to 20 days in co-treated with 1 mg/kg, ip qd fluconazol (reference value: 4.5 day); type: functional
HEL [23] = test: Antitumor activity against human HEL cells xenografted in BALB/C nude mouse assessed as tumor growth at 10 mg/kg, ip bid treated for 21 consecutive days relative to control; type: functional
HEL [24] = test: Cell cycle arrest in human HEL cells assessed as accumulation at G1 phase at 1 to 10 uM after 48 hrs propidium iodide staining based flow cytometry; type: functional
HL-60 [25] = test: Antiproliferative activity against human HL60 cells after 48 hrs in presence of JAK2 inhibitor CYT-387 by CCK-8 assay; type: functional, cell-based; details: HL-60, 48 h
K562 [26] = test: Antiproliferative activity against human K562 cells after 48 hrs in presence of JAK2 inhibitor CYT-387 by CCK-8 assay; type: functional, cell-based; details: K562, 48 h
HEL [27] = test: Antiproliferative activity against human HEL cells after 48 hrs in presence of JAK2 inhibitor CYT-387 by CCK-8 assay; type: functional, cell-based
HEL [28] = test: Antitumor activity in human HEL cells xenografted in SCID mouse assessed as mouse survival time at 10 mg/kg, ip qd; type: functional
Mus musculus [29] = test: In vivo antifungal activity against FLC resistant Candida albicans 0304103 infected in ICR mouse assessed as mouse survival at 5 mg/kg, ip qd up to 20 days (reference value: 4.5 day); type: functional, organism-based
HEL [30] = test: Cell cycle arrest in human HEL cells assessed as accumulation at G1 phase at 1 to 5 uM after 48 hrs propidium iodide staining based flow cytometry; type: functional
Candida albicans [31] = test: Antifungal activity against FLC resistant Candida albicans 0304103 at 1 ug/ml up to 24 hrs by checkerboard microdilution method; type: functional, organism-based
Mus musculus [32] = test: In vivo antifungal activity against FLC resistant Candida albicans 0304103 infected in ICR mouse assessed as mouse survival at 1 mg/kg, ip qd up to 20 days (reference value: 4.5 day); type: functional

| Structure (SMILES) | pIC50 (HL-60 [1]) | pIC50 (K562 [2]) | pIC50 (HEL [3]) | MIC50 (Candida albicans [5]) | MIC50 (Candida albicans [8]) | MIC50 (Candida albicans [11]) | inhibition in vivo at 10 mg/kg (HEL [17]) | Activity (Mus musculus [18]) | Activity (Mus musculus [19]) | Activity (Mus musculus [20]) | Activity (HEL [21]) | MST (Mus musculus [22]) | T/C (HEL [23]) | pIC50 (HL-60 [25]) | pIC50 (K562 [26]) | pIC50 (HEL [27]) | Activity (HEL [28]) | Activity (Mus musculus [29]) | also measured |
| --- | --- | --- | --- | --- | --- | --- | --- | --- | --- | --- | --- | --- | --- | --- | --- | --- | --- | --- | --- |
| N#CCNC(=O)c1ccc(-c2ccnc(Nc3ccc(N4CCOCC4)cc3)n2)cc1 [MOMELOTINIB] | 5.08 | 5.19 | 5.64 | > 64 µg/mL | > 64 µg/mL | > 64 µg/mL | 40.2% | Non-Toxic | Non-Toxic | inactive | inactive | 5.5 days | 68.3% |  |  |  |  |  | Activity (HEL [4]): 25.9%; MIC50 (Candida albicans [6]): > 64 µg/mL; MIC50 (Candida albicans [7]): > 64 µg/mL; MIC50 (Candida albicans [9]): > 64 µg/mL; MIC50 (Candida albicans [10]): > 64 µg/mL; MIC50 (Candida albicans [12]): 64 µg/mL (≈ 154 µM); MIC50 (Candida albicans [13]): 64 µg/mL (≈ 154 µM); fractional inhibitory concentration index (FICI) (Candida albicans [14]): >2; fractional inhibitory concentration index (FICI) (Candida albicans [15]): >2; fractional inhibitory concentration index (FICI) (Candida albicans [16]): 2 |
| O=C(CCCCCCNC(=O)c1cnc(N(c2ccccc2)c2ccccc2)nc1)NO [RICOLINOSTAT] | 4.62 to 5.43 | 4.62 to 5.43 | 4.62 to 5.43 | > 64 µg/mL | > 64 µg/mL | > 64 µg/mL | 14.1% |  |  | inactive |  | 5 days |  | 5.07 to 5.60 | 5.07 to 5.60 | 5.07 to 5.60 | inactive | inactive | Activity (HEL [24]): Active |
| CN1CCc2c(c3ccccc3n2Cc2ccc(C(=O)NO)cc2)C1 [TUBASTATIN A] | 4.62 to 5.43 | 4.62 to 5.43 | 4.62 to 5.43 | > 64 µg/mL | > 64 µg/mL | > 64 µg/mL | 18.8% |  |  | inactive |  | 4.5 days |  | 5.07 to 5.60 | 5.07 to 5.60 | 5.07 to 5.60 | inactive | inactive | Activity (HEL [30]): Active |
| O=C(CCCCCCC(=O)Nc1ccccc1)NO [VORINOSTAT] |  | 5.11 |  |  |  |  |  | Non-Toxic | Non-Toxic | inactive | inactive | 10 days | 87.9% |  |  |  |  |  |  |
| OC(Cn1cncn1)(Cn1cncn1)c1ccc(F)cc1F [FLUCONAZOLE] |  |  |  | > 64 µg/mL | > 64 µg/mL | > 64 µg/mL |  |  |  |  |  |  |  |  |  |  |  |  | Activity (Candida albicans [31]): inactive; MST (Mus musculus [32]): 7.5 days |
